Laboratory results as given in patent publication US20230189803A1, “COMPOSITIONS CONTAINING ORGANIC ACIDS AND THEIR ESTERS TO PREVENT MOLD CONTAMINATION IN ANIMAL FEED” (KEMIN INDUSTRIES, INC., priority 2021, published 2023).

Tests used:
Format in all cases: cell-based
mold [1] = experiment: CO2 study in soybean meal samples (Example 13); settings: 0.06 mol/kg, after one month of storage
Experimental: Efficacy on soybean meal. FIGS. 18 and 19 show the CO2 production (%) of the untreated soybean meal samples compared to the soybean meal samples treated with ester 1 and propionic acid at a dosage of 0.06 and 0.08 mol/kg, respectively. In the untreated samples, a fast increase in CO2 level was measured within the first days and the CO2 value stayed around 20% during the whole course of the trial. […] Samples treated with ester 1 and propionic acid at a dosage of 0.08 mol/kg were still completely stable after 84 days.

mold [2] = experiment: CO2 study in barley samples, dose response of propionic acid esters as mold inhibitors (Example 9); settings: barley 20.2% moisture
Experimental: Materials. Barley was procured from a local supplier.
Efficacy. The moisture level of barley was determined before the start of the experiments4. The moisture level of the barley samples was adjusted to 20.2+/−0.5% by the addition of tap water. The barley samples, with the adjusted moisture content, were afterwards treated with the different extracted esters at different dose levels (0.02 mol/kg, 0.04 mol/kg, 0.06 mol/kg and 0.08 mol/kg). The untreated barley samples and samples treated with propionic acid (0.02 mol/kg-0.08 mol/kg) were included as controls. All barley samples were collected in closed plastic containers for evaluation of the CO2-production. The samples were stored at 25° C. The CO2-production in the headspace was monitored regularly during a 3-month period using the Edinburgh sensor Guardian NG. Three replicates were analyzed for each treatment.
(§1) Statistical analysis. To determine significant differences in CO2-values values (p<0.05), repeated measures analysis was performed by method of General Linear Models procedure (StatGraphics Centurion XV). The repeated measures statistical treatment of results was used because it can be used when change over time is assessed. Where significant differences resulted, Multiple Range Test was used to separate the means.

mold [3] = experiment: CO2 study in barley samples, propylene glycol esters compared with other esters (Example 10); settings: barley 19.8% moisture, 0.02-0.08 mol/kg, molar basis
Experimental: as §1, with “Materials. The moisture level of barley samples was increased till 20.2%. [table] Statistical” for “Statistical”, “CO2-values” for “CO2-values values”

Row | SMILES | CO2 levels during storage (mold [1]) | CO2 increase compared to the esters (mold [2]; 0.06 mol/kg) | storage time for which samples stay stable / after which CO2 starts increasing (mold [2]; 0.08 mol/kg) [days] | efficacy in controlling mold growth (CO2 evolution), comparative (mold [3])
1 | CCC(=O)O [propionic acid] | CO2 levels started to increase | CO2 increased faster | 40 | –
2 | CC(=O)O [acetic acid] | – | – | – | less effective in controlling mold growth compared to propionic acid
